From article PMC6691788, “Design and synthesis of phthalazine-based compounds as potent anticancer agents with potential antiangiogenic activity via VEGFR-2 inhibition” (Journal of Enzyme Inhibition and Medicinal Chemistry, 2019)

Legend:
[1] = test system: UO-31; experiment: NCI 60 cell panel SRB screen; type: cell-based; conditions: Homo sapiens; for activity at 10 µM: UO-31, single dose 10 μM, read-out: percent cell growth promotion
[2] = test system: SK-MEL-28; experiment: NCI 60 cell panel SRB screen; type: cell-based; conditions: Homo sapiens; for activity at 10 µM: SK-MEL-28, read-out: percent cell growth promotion
[3] = test system: HOP-62; experiment: NCI 60 cell panel SRB screen; type: cell-based; conditions: Homo sapiens; for activity at 10 µM: HOP-62, single dose 10 μM, read-out: percent cell growth promotion
[4] = test system: SN12C; experiment: NCI 60 cell panel SRB screen; type: cell-based; conditions: Homo sapiens; for activity at 10 µM: single dose 10 μM, read-out: percent cell growth promotion
[5] = test system: UACC-257; experiment: NCI 60 cell panel SRB screen; type: cell-based; conditions: Homo sapiens; for activity at 10 µM: UACC-257, read-out: percent cell growth promotion
[6] = test system: A549/ATCC; experiment: NCI 60 cell panel SRB screen; type: cell-based; conditions: Homo sapiens; for activity at 10 µM: single dose 10 μM, read-out: percent cell growth promotion
[7] = test system: A498; experiment: NCI 60 cell panel SRB screen; type: cell-based; conditions: Homo sapiens; for activity at 10 µM: A498, single dose 10 μM, read-out: percent cell growth promotion
[8] = molecular target: T1, VEGFR-2 tyrosine kinase (Homo sapiens, UniProt P35968); experiment: In vitro VEGFR-2 tyrosine kinase assay (BPS Bioscience); type: biochemical; conditions: read-out: VEGFR-2 % inhibition; 10 μM concentration
T1 construct: purchased BPS Bioscience 40301
In short: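 Single-point screen at 10 µM: recombinant VEGFR with poly(Glu,Tyr) 0.2 mg/ml, 10 μM ATP, Tris pH 7.4, MgCl2, BSA, 1% DMSO, 40 min at 30 °C; residual ATP read by Kinase-Glo Plus luminescence.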

[9] = test system: SW-620; experiment: NCI 60 cell panel SRB screen; type: cell-based; conditions: Homo sapiens; for activity at 10 µM: SW-620, single dose 10 μM, read-out: percent cell growth promotion
[10] = test system: MOLT-4; experiment: NCI 60 cell panel SRB screen; type: cell-based; conditions: Homo sapiens; for activity at 10 µM: MOLT-4, single dose 10 μM, read-out: percent cell growth promotion
[11] = test system: NCI-H322M; experiment: NCI 60 cell panel SRB screen; type: cell-based; conditions: Homo sapiens; for activity at 10 µM: single dose 10 μM, read-out: percent cell growth promotion
[12] = test system: OVCAR-4; experiment: NCI 60 cell panel SRB screen; type: cell-based; conditions: Homo sapiens; for activity at 10 µM: OVCAR-4, single dose 10 μM, read-out: percent cell growth promotion
[13] = test system: HT29; experiment: NCI 60 cell panel SRB screen; type: cell-based; conditions: Homo sapiens, HT-29; for activity at 10 µM: HT29, single dose 10 μM, read-out: percent cell growth promotion
[14] = test system: HS 578T; experiment: NCI 60 cell panel SRB screen; type: cell-based; conditions: Homo sapiens; for activity at 10 µM: read-out: percent cell growth promotion
[15] = test system: MDA-MB 231/ATCC; experiment: NCI 60 cell panel SRB screen; type: cell-based; conditions: Homo sapiens; for activity at 10 µM: MDA-MB-231, read-out: percent cell growth promotion
[16] = test system: OVCAR-8; experiment: NCI 60 cell panel SRB screen; type: cell-based; conditions: Homo sapiens; for activity at 10 µM: OVCAR-8, single dose 10 μM, read-out: percent cell growth promotion
[17] = test system: CAKI-1; experiment: NCI 60 cell panel SRB screen; type: cell-based, human; conditions: for activity at 10 µM: CAKI-1, single dose 10 μM, read-out: percent cell growth promotion
[18] = test system: HOP-92; experiment: NCI 60 cell panel SRB screen; type: cell-based; conditions: Homo sapiens; for activity at 10 µM: HOP-92, single dose 10 μM, read-out: percent cell growth promotion
[19] = test system: SF-268; experiment: NCI 60 cell panel SRB screen; type: cell-based; conditions: Homo sapiens; for activity at 10 µM: SF-268, single dose 10 μM, read-out: percent cell growth promotion
[20] = test system: NCI/ADR-RES; experiment: NCI 60 cell panel SRB screen; type: cell-based; conditions: Homo sapiens; for activity at 10 µM: single dose 10 μM, read-out: percent cell growth promotion
[21] = 5 log dose, 48 h, read-out: LC50 (the source's name)

T1 sequence (P35968 20-1356): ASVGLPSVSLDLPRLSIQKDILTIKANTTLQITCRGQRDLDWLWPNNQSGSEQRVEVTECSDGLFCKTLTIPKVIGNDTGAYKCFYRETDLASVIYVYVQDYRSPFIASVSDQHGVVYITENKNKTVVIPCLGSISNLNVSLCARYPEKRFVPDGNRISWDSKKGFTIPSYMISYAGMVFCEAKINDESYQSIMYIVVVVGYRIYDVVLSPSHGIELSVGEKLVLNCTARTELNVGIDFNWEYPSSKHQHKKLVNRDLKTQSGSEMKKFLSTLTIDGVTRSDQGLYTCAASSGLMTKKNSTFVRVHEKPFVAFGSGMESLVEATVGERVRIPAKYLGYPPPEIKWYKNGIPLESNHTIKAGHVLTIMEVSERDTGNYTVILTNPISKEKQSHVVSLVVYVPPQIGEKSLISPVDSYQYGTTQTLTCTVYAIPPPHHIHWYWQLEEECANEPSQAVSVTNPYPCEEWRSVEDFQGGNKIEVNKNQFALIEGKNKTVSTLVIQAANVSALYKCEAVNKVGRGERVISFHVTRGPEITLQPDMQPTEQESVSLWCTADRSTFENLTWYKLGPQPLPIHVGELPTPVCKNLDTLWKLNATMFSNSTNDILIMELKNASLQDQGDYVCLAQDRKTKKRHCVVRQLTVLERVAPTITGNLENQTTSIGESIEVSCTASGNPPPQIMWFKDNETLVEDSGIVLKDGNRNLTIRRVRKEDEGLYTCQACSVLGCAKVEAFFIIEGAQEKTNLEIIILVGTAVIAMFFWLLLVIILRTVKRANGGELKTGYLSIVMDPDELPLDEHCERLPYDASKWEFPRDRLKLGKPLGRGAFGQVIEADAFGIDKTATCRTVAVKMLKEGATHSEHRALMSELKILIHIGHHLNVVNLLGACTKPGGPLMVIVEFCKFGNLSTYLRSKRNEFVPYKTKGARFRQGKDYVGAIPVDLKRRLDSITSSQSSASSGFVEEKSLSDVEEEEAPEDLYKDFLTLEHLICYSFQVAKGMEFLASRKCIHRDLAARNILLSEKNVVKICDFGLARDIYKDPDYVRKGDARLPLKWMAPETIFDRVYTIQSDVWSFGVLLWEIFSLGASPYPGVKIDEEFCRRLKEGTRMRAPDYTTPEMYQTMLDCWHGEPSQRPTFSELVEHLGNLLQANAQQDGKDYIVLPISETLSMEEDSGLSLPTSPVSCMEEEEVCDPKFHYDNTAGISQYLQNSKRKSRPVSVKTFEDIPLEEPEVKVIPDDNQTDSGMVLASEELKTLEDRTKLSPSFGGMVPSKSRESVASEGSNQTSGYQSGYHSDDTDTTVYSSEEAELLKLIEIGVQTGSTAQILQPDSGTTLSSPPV

Compound: O=C(Nc1ccc(Cl)cc1)Nc1ccc(Oc2nncc3ccccc23)cc1 [Compound 7b, 1–(4-Chlorophenyl)-3–(4-(phthalazin-1-yloxy)phenyl)urea]
- GI50 ([1]; UO-31, 5 log dose): 1.29 µM
- IC (TGI) ([1]; UO-31, 5 log dose): 2.67 µM
- activity at 10 µM [1]: -51.6%
- GI50 ([2]; SK-MEL-28): 0.42 µM
- IC (TGI) ([2]; SK-MEL-28, read-out: TGI): 1.65 µM
- activity at 10 µM [2]: -31.6%
- CC50 ([2]; SK-MEL-28, 5 log dose, 48 h, read-out: LC50 (the source's name)): 5.33 µM
- GI50 ([3]; HOP-62, 5 log dose): 1.09 µM
- IC (TGI) ([3]; HOP-62, 5 log dose): 4.32 µM
- CC50 ([3]; HOP-62, 5 log dose, 48 h, read-out: LC50 (the source's name)): 47.7 µM
- activity at 10 µM [3]: 26.7%
- GI50 ([4]; 5 log dose): 1.03 µM
- IC (TGI) ([4]; 5 log dose): 3.58 µM
- CC50 [4, 21]: > 100 µM
- activity at 10 µM [4]: -3.83%
- GI50 ([5]; UACC-257): 0.15 µM
- IC (TGI) ([5]; UACC-257, read-out: TGI): 4.04 µM
- activity at 10 µM [5]: 34.4%
- CC50 ([5]; UACC-257, 5 log dose, 48 h, read-out: LC50 (the source's name)): 12.9 µM
- GI50 ([6]; 5 log dose): 2.81 µM
- IC (TGI) ([6]; 5 log dose): 11.5 µM
- LC50 (concentration killing 50% of cells) ([6]; 5 log dose, 48 h): > 100 µM
- activity at 10 µM [6]: 40%
- GI50 ([7]; A498, 5 log dose): 1.5 µM
- IC (TGI) ([7]; A498, 5 log dose): 3.06 µM
- CC50 ([7]; A498, 5 log dose, 48 h, read-out: LC50 (the source's name)): 6.26 µM
- activity at 10 µM [7]: 24.5%
- inhibition at 10 µM [8]: 13%
- GI50 ([9]; SW-620, 5 log dose): 0.34 µM
- IC (TGI) ([9]; SW-620, 5 log dose): 1.06 µM
- CC50 ([9]; SW-620, 5 log dose, 48 h, read-out: LC50 (the source's name)): 30.3 µM
- activity at 10 µM [9]: -30.1%
- GI50 ([10]; MOLT-4, 5 log dose): 0.37 µM
- IC (TGI) ([10]; MOLT-4, 5 log dose): > 100 µM
- CC50 ([10]; MOLT-4, 5 log dose, 48 h, read-out: LC50 (the source's name)): > 100 µM
- activity at 10 µM [10]: 3.99%
- GI50 ([11]; 5 log dose): 2.6 µM
- IC (TGI) ([11]; 5 log dose): 9.51 µM
- CC50 [11, 21]: 34.9 µM
- activity at 10 µM [11]: 60.9%
- GI50 ([12]; OVCAR-4, 5 log dose): 0.75 µM
- IC (TGI) ([12]; OVCAR-4, 5 log dose): 3.49 µM
- CC50 ([12]; OVCAR-4, 5 log dose, 48 h, read-out: LC50 (the source's name)): 17 µM
- activity at 10 µM [12]: -20.8%
- GI50 ([13]; HT29, 5 log dose): 0.46 µM
- IC (TGI) ([13]; HT29, 5 log dose): 2.39 µM
- CC50 ([13]; HT29, 5 log dose, 48 h, read-out: LC50 (the source's name)): > 100 µM
- activity at 10 µM [13]: 0.52%
- GI50 ([14]; Hs-578T): 0.69 µM
- IC (TGI) ([14]; Hs-578T, read-out: TGI): 47 µM
- activity at 10 µM ([14]; Hs-578T): 37.5%
- CC50 ([14]; HS 578T, 5 log dose, 48 h, read-out: LC50 (the source's name)): > 100 µM
- GI50 ([15]; MDA-MB-231): 0.39 µM
- IC (TGI) ([15]; MDA-MB-231, read-out: TGI): 3.68 µM
- activity at 10 µM [15]: -25.2%
- CC50 ([15]; MDA-MB-231, MDA-MDA 231/ATCC, 5 log dose, 48 h, read-out: LC50 (the source's name)): 42.4 µM
- GI50 ([16]; OVCAR-8, 5 log dose): 1.1 µM
- IC (TGI) ([16]; OVCAR-8, 5 log dose): 13.6 µM
- CC50 ([16]; OVCAR-8, 5 log dose, 48 h, read-out: LC50 (the source's name)): > 100 µM
- activity at 10 µM [16]: 19.4%
- TGI ([17]; CAKI-1, 5 log dose): 8.70 µM
- GI50 ([17]; Homo sapiens, CAKI-1, 5 log dose): 2.72 µM
- CC50 ([17]; Homo sapiens, CAKI-1, 5 log dose, 48 h, read-out: LC50 (the source's name)): 43.9 µM
- activity at 10 µM ([17]; Homo sapiens): 18.7%
- GI50 ([18]; HOP-92, 5 log dose): 1.64 µM
- IC (TGI) ([18]; HOP-92, 5 log dose): 4.37 µM
- CC50 ([18]; HOP-92, 5 log dose, 48 h, read-out: LC50 (the source's name)): 17.1 µM
- activity at 10 µM [18]: 12.9%
- GI50 ([19]; SF-268, 5 log dose): 1.35 µM
- IC (TGI) ([19]; SF-268, 5 log dose): 7.21 µM
- CC50 ([19]; SF-268, 5 log dose, 48 h, read-out: LC50 (the source's name)): 70.2 µM
- activity at 10 µM [19]: 12.6%
- GI50 ([20]; 5 log dose): 2.63 µM
- IC (TGI) ([20]; 5 log dose): > 100 µM
- CC50 [20, 21]: > 100 µM
- activity at 10 µM [20]: 37.6%

Compound: Cc1nnc(Oc2ccc(NC(=O)Nc3ccc(Cl)cc3)cc2)c2ccccc12 [Compound 7e, 1–(4-Chlorophenyl)-3–(4-(4-methylphthalazin-1-yloxy)phenyl)urea]
- activity at 10 µM [1]: 51.4%
- activity at 10 µM [2]: 88.3%
- activity at 10 µM [3]: 71.1%
- activity at 10 µM [4]: 79.1%
- activity at 10 µM [5]: 83.9%
- activity at 10 µM [6]: 61.5%
- activity at 10 µM [7]: 51.5%
- inhibition at 10 µM [8]: 14%
- activity at 10 µM [9]: 95%
- activity at 10 µM [10]: 36.1%
- activity at 10 µM [11]: 82.4%
- activity at 10 µM [12]: 70.8%
- activity at 10 µM [13]: 77%
- activity at 10 µM ([14]; Hs-578T): 76.4%
- activity at 10 µM [15]: 52.9%
- activity at 10 µM [16]: 76%
- activity at 10 µM ([17]; Homo sapiens): 79.7%
- activity at 10 µM [18]: 93.5%
- activity at 10 µM [19]: 70.5%
- activity at 10 µM [20]: 72.8%

Compound: CCOC(=O)N1CCN(c2nncc3ccccc23)CC1 [Compound 8a, Ethyl 4-(phthalazin-1-yl)piperazine-1-carboxylate]
- activity at 10 µM [1]: 91.3%
- activity at 10 µM [2]: 116%
- activity at 10 µM [3]: 107%
- activity at 10 µM [4]: 110%
- activity at 10 µM [5]: 95.8%
- activity at 10 µM [6]: 99.6%
- activity at 10 µM [7]: 105%
- inhibition at 10 µM [8]: 13%
- activity at 10 µM [9]: 102%
- activity at 10 µM [10]: 98.6%
- activity at 10 µM [11]: 113%
- activity at 10 µM [12]: 107%
- activity at 10 µM [13]: 106%
- activity at 10 µM ([14]; Hs-578T): 113%
- activity at 10 µM [15]: 108%
- activity at 10 µM [16]: 97.7%
- activity at 10 µM ([17]; Homo sapiens): 96.1%
- activity at 10 µM [18]: 104%
- activity at 10 µM [19]: 104%
- activity at 10 µM [20]: 102%
